# In US6852741B2, “Compositions and methods for treatment of neurological disorders” (University of Florida, priority 2001, dated 2005):
# Tests used:
# [1] = biological target: T1, α3β4 nicotinic acetylcholine receptor (Rattus norvegicus, UniProt P04757+P12392); experiment: Two-electrode voltage clamp of Xenopus oocytes expressing wild-type α3β4 receptors; format: cell-based; conditions: for Protection from residual inhibition produced by 100 μM DMXB: pre-treatment and co-application, 100 μM ACh control after 5 minute wash
# T1 construct: expressed in transfected cells; host or cells: Xenopus laevis oocytes injected with subunit cRNAs
# Description: (§1) Preparation of RNA. After linearization and purification of cloned cDNAs, RNA transcripts were prepared in vitro using the appropriate mMessage mMachine kit from AMBION Inc. (Austin, Tex.).
# (§2) Expression in Xenopus oocytes. Mature (>9 cm) female Xenopus laevis African toads (NASCO, Ft. Atkinson, Wis.) were used as a source of oocytes. Prior to surgery, frogs were anesthetized by placing the animal in a 1.5 g/L solution of MS222 (3-aminobenzoic acid ethyl ester). Eggs were removed from an incision made in the abdomen. […] Subsequently, stage 5 oocytes were isolated and injected with 50 nl (5-20 ng) each of a mixture of the appropriate subunit cRNAs following harvest. Recordings were made 1 to 7 days after injection depending on the cRNAs being tested.
# (§3) Electrophysiology. […] Data were acquired using Labview software (NATIONAL INSTRUMENTS) or pClamp8 (AXON INSTRUMENTS) and filtered at a rate of 6 Hz. […] A Mariotte flask filled with Ringer's solution was used to maintain a constant hydrostatic pressure for drug deliveries and washes. Drugs were diluted in perfusion solution and loaded into a 2 ml loop at the terminus of the perfusion line. A bypass of the drug-loading loop allowed bath solution to flow continuously while the drug loop was loaded, and then drug application was synchronized with data acquisition by using a 2-way electronic valve. The rate of bath solution exchange and all drug applications was 6 ml/min. Current electrodes were filled with a solution containing 250 mM CsCl, 250 mM CsF and 100 mM EGTA and had resistances of 0.5-2 MΩ. Voltage electrodes were filled with 3 M KCl and had resistances of 1-3 MΩ.
# (§4) Experimental protocols and data analysis. Current responses to drug application were studied under two-electrode voltage clamp at a holding potential of −50 mV unless otherwise noted. Holding currents immediately prior to agonist application were subtracted from measurements of the peak response to agonist.
# (§5) The ratio of C2/C1 is referred to as the recovery response (FIGS. 2B, 3B and 3D). Measurements of C2/C1 that were <0.75 were taken to indicate that the experimental drug application produced some form of residual inhibition. An oocyte was not used for further experimental drug applications when the measurements of C2/C 1 became less than 0.75.
# (§6) Means and standard errors (SEM) were calculated from the normalized responses of at least four oocytes for each experimental concentration. For concentration-response relations (FIGS. 2 & 3), data were plotted using Kaleidagraph 3.0.2 (ABELBECK SOFTWARE; Reading, Pa.), and curves were generated from the Hill equation. [formula]
# (§7) In Formula I, Imax denotes the maximal response for a particular agonist/subunit combination, and n represents the Hill coefficient. Imax, n, and the EC50 were all unconstrained for the fitting procedures.
# The values for the C2/C1 ratios were plotted as functions of the experimental agonist concentrations applied between the C2 and C1 control responses. The data were then fit to the Hill equation with n constrained to equal −1 for the calculation of IC50 values. Determination of significant differences between experimental and control groups (FIGS. 4A-4B and 5A-5D) was made by t-test (unpaired two-tailed).
# [2] = biological target: T2, α3β4(6′F10′T) nicotinic acetylcholine receptor (Rattus norvegicus, UniProt P04757+P12392, A272T/S268F); experiment: Two-electrode voltage clamp of Xenopus oocytes expressing mutant α3β4(6′F10′T) receptors; format: cell-based; conditions: for Effect of hyperpolarized holding potential on residual inhibition: −100 mV versus −50 mV; for Residual inhibition of mutant compared with wild-type receptor: after 5 minute wash
# T2 construct: expressed in transfected cells; host or cells: Xenopus laevis oocytes injected with subunit cRNAs; mutant made by QuikChange site-directed mutagenesis
# Description: cDNA clones. […] The sequences of the TM2 domains of the relevant subunits are shown below.
# Construction of site-directed mutants. Site-directed mutagenesis was conducted with […] kits ([…], LaJolla, Calif.). In brief, two complimentary oligonucleotides were synthesized which contain the desired mutation flanked by 10-15 bases of unmodified nucleotide sequence. Using a thermal cycler, Pfu DNA polymerase extended the sequence around the whole vector, generating a plasmid with staggered nicks. […] After 12-16 cycles, the product was treated with Dpn I, which digested the methylated parent DNA into numerous small pieces. The product was then transformed into E. coli cells, which repaired the nicks. Mutations were confirmed by DNA sequencing.
# as §1, §2, §3, §4, §5, §6, §7
# The values for the C2/C1 ratios were plotted as functions of the experimental agonist concentrations applied between the C2 and C1 control responses. The data were then fit to the Hill equation with n constrained to equal −1 for the calculation of IC50 values.
# [3] = Hill fit of peak currents, holding potential −50 mV
# T2 sequence (P04757 26-499): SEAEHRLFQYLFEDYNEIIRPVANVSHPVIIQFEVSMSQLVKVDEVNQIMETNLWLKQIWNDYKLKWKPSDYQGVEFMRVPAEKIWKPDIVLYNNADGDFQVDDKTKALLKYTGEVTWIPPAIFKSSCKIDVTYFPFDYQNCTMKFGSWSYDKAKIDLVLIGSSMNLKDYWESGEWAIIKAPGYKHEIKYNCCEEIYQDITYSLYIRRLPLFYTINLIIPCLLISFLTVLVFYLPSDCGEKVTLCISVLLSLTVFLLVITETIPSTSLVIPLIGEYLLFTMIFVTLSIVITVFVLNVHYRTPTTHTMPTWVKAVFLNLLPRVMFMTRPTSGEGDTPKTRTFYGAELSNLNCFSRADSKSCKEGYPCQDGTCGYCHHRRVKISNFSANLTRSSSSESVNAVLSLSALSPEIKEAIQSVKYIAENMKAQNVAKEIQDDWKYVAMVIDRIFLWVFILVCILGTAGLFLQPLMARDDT
# T2 sequence (P12392 21-495 S268F/A272T): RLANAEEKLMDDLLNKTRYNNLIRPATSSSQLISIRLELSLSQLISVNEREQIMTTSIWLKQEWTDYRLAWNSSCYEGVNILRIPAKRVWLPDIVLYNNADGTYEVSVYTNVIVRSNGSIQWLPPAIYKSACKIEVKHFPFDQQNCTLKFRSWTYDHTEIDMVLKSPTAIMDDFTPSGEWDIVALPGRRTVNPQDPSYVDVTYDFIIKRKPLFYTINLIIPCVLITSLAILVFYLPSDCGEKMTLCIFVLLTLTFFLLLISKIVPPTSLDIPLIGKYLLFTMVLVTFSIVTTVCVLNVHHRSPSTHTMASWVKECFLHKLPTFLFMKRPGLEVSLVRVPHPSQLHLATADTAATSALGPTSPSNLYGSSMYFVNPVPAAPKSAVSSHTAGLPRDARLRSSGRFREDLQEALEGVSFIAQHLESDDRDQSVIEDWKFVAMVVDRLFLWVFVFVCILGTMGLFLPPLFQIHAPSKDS
# T1 sequence (P04757 26-499): as the sequence (P04757 26-499) above
# T1 sequence (P12392 21-495): as the sequence (P12392 21-495 S268F/A272T) above, with F248S, T252A counted along it
smiles,measurement,setting,value
"CN1CCCC1c1cccnc1 (single isomer, unassigned; (-)) [Nicotine, (−)-Nicotine]",n (Hill coefficient),[1]; Hill fit of peak currents,1.2 ± 0.2
same,n (Hill coefficient),[2]; Hill fit of peak currents,0.8 ± 0.3
same,Persistence of residual inhibition,"[2]; repeated applications, data not shown",up to an hour
same,Effect of hyperpolarized holding potential on residual inhibition,[2],enhanced
"COc1ccc(/C=C2\CCCN=C2c2cccnc2)c(OC)c1 [DMXB, 3-[2,4-dimethoxybenzylidene]-anabaseine]",IC50,[1],121 ± 48 µM
same,"Activation on co-application with 100 μM ACh, relative to ACh alone",[1]; 100 μM DMXB co-applied with 100 μM ACh,4±0.2%
same,Effect of ACh co-application on DMXB-induced inhibition,[1]; DMXB co-applied with 100 μM ACh,not enhanced
same,Effect of hyperpolarized holding potential on residual inhibition,[1]; −100 mV versus −50 mV,enhanced
same,IC50,[2],23 ± 17 µM
same,Response to 100 μM ACh when co-applied with DMXB,[2]; 30 μM DMXB co-applied with 100 μM ACh,13±2%
same,Effect of ACh co-application on DMXB-induced residual inhibition,[2]; 30 μM DMXB co-applied with ACh,large increase in the residual inhibition
same,Residual inhibition of mutant compared with wild-type receptor,[2],more inhibition after it was applied at 100 or 300 μM
same,Effect of hyperpolarized holding potential on residual inhibition,[2],enhanced
"CC[N+](CC)(CC)CC(=O)Nc1c(C)cccc1C [QX-314, 2-(triethylamino)-N-(2,6-dimethylphenyl)-acetamide]",Protection from residual inhibition produced by 100 μM DMXB,[1],neither of these agents provided any protection
"CNCC/C=C/c1cccnc1 [TC-2403, (E)-N-methyl-4-(3-pyridinyl)-3-butene-1-amine]",n (Hill coefficient),[1]; Hill fit of peak currents,2.1 ± 0.2
same,Max response (relative to ACh Maximum),[1]; [3],0.09 ± 0.01
same,EC50,[1]; activation of peak currents,347 ± 12 µM
same,Protection from residual inhibition produced by 100 μM DMXB,[1],significant (p<0.05) reduction in the residual inhibition
same,n (Hill coefficient),[2]; Hill fit of peak currents,2.1 ± 0.2
same,Max response (relative to ACh Maximum),[2]; [3],0.38 ± 0.01
same,EC50,[2]; activation of peak currents,111 ± 5 µM
same,"Control ACh response after application, relative to pre-application control values","[2]; after 1 mM TC-2403, 5 minute wash",70±6%
same,Residual inhibition of mutant compared with wild-type receptor,[2],no significant increase in residual inhibition at concentrations less than 1 mM
same,Protection from residual inhibition produced by 100 μM DMXB,"[2]; pre-treatment and co-application, p<0.01 for TC-2403",significant protection
same,Protection from residual inhibition produced by 300 μM nicotine,"[2]; pre-treatment and co-application, p<0.05 for TC-2403",significant protection
CCCCNc1ccc(C(=O)OCCN(C)C)cc1 [tetracaine],Protection from residual inhibition produced by 100 μM DMXB,[1],neither of these agents provided any protection
